The text below walks through data of PubChem BioAssay (NCI).

Among the test systems are CAKI-1 renal; COLO 205 colon; HCT-116 colon; HL-60(TB) leukemia; HOP-62 NSCLC; IGROV1 ovarian; OVCAR-3 ovarian; OVCAR-5 ovarian; SK-OV-3 ovarian; UACC-257 melanoma.
Test in all cases: growth of human tumour cells (NCI), 48 h

Each structure is given as a SMILES string.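 Test compounds were applied to cells in 96-well plates for 48 hours at 5 doses. GI50: concentration for 50% inhibition of growth. TGI is the concentration that stops growth completely.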

For the compound `O=C(Nc1ccc(S(=O)(=O)Nc2nccs2)cc1)c1cccnc1Nc1cccc(Cl)c1`, the GI50 in the assay on CAKI-1 renal was 17 µM; in the assay with COLO 205 colon, 18 µM; in the assay with HCT-116 colon, 12.2 µM; in the assay on HL-60(TB) leukemia it was 24.8 µM; in the assay with HOP-62 NSCLC it was 16.2 µM; with IGROV1 ovarian it was 15.4 µM. The GI50 with OVCAR-3 ovarian was 13.1 µM; with OVCAR-5 ovarian it was 17.6 µM; in the assay with SK-OV-3 ovarian, 20.8 µM; with UACC-257 melanoma it was 18.8 µM. For the same compound, the TGI in the assay on CAKI-1 renal worked out at 52.2 µM; with COLO 205 colon it was 33.2 µM; with HCT-116 colon, 25.2 µM; with HL-60(TB) leukemia, 78.9 µM; with HOP-62 NSCLC, 31.3 µM; in the assay on IGROV1 ovarian, 53 µM. Further, the TGI in the assay with OVCAR-3 ovarian worked out at 27.4 µM; in the assay with OVCAR-5 ovarian, 44.8 µM; in the assay with SK-OV-3 ovarian, 58.8 µM; in the assay on UACC-257 melanoma, 43.6 µM.

Take `CC(C)(C)NNC(=O)/C(=C/c1ccc(Oc2ccc(Cl)c(Cl)c2)cc1)NC(=O)c1ccccc1`: the TGI is more than 100 µM in the assay with CAKI-1 renal; 36.8 µM with COLO 205 colon; more than 100 µM in the assay with HCT-116 colon; more than 100 µM with HL-60(TB) leukemia; more than 100 µM with HOP-62 NSCLC; more than 100 µM with IGROV1 ovarian. Moreover, the TGI in the assay on OVCAR-3 ovarian, in the assay on OVCAR-5 ovarian, in the assay with SK-OV-3 ovarian and with UACC-257 melanoma was more than 100 µM each time.

With `CCN(CC)CCCN(c1cc(OC)cc2nccnc12)S(=O)(=O)c1ccc(C)cc1`, the TGI with CAKI-1 renal, in the assay on COLO 205 colon, in the assay with HL-60(TB) leukemia, with HOP-62 NSCLC, in the assay with IGROV1 ovarian and in the assay on OVCAR-3 ovarian was more than 100 µM each time. Besides, the TGI with OVCAR-5 ovarian, in the assay with SK-OV-3 ovarian and in the assay on UACC-257 melanoma was more than 100 µM throughout.

As for `CC(=O)N(C)OC(=O)CC(=O)c1ccccc1`, the TGI in the assay on CAKI-1 renal, in the assay with COLO 205 colon, in the assay on HCT-116 colon, in the assay on HL-60(TB) leukemia, in the assay with HOP-62 NSCLC and with IGROV1 ovarian was more than 100 µM each time. The TGI with OVCAR-3 ovarian, in the assay with OVCAR-5 ovarian, in the assay with SK-OV-3 ovarian and with UACC-257 melanoma was more than 100 µM throughout.

`Nc1ccccc1C#CC#Cc1ccccc1N`: the GI50 in the assay with CAKI-1 renal was 1.36 µM; in the assay on COLO 205 colon, 22.5 µM; in the assay on HCT-116 colon, 6.02 µM; with HL-60(TB) leukemia, 3.97 µM; in the assay on HOP-62 NSCLC, 15.9 µM; in the assay with IGROV1 ovarian it was 18.6 µM. The GI50 with OVCAR-3 ovarian was 2.85 µM; in the assay with SK-OV-3 ovarian, 58 µM; with UACC-257 melanoma, 4.56 µM. The TGI with CAKI-1 renal is 18.7 µM; in the assay on COLO 205 colon, 75.7 µM; with HCT-116 colon it was 24.8 µM; in the assay on HL-60(TB) leukemia, more than 100 µM; with HOP-62 NSCLC, 29.9 µM; in the assay on IGROV1 ovarian, 86.2 µM. Besides, the TGI in the assay on OVCAR-3 ovarian was 36.3 µM; in the assay with SK-OV-3 ovarian, more than 100 µM; in the assay on UACC-257 melanoma, 24.5 µM.

With `Oc1ccc2ccccc2c1C=NCCCN=Cc1c(O)ccc2ccccc12`, the GI50 in the assay with CAKI-1 renal is 15.7 µM; in the assay with COLO 205 colon it was 15.9 µM; in the assay on HCT-116 colon, 10 µM; with HL-60(TB) leukemia, 24.1 µM; with HOP-62 NSCLC it was 22.6 µM; with IGROV1 ovarian, 28.1 µM. In addition, the GI50 with OVCAR-3 ovarian was 3.31 µM; in the assay on OVCAR-5 ovarian, 28.4 µM; in the assay with SK-OV-3 ovarian it was 24.8 µM; in the assay with UACC-257 melanoma, 21.7 µM. The TGI in the assay with CAKI-1 renal is 49.5 µM; in the assay on COLO 205 colon, 31.1 µM; in the assay on HCT-116 colon, 31.4 µM; in the assay on HL-60(TB) leukemia, more than 100 µM; in the assay with HOP-62 NSCLC, 47.4 µM; with IGROV1 ovarian it was more than 100 µM. The TGI is 14.8 µM in the assay on OVCAR-3 ovarian, 81.4 µM in the assay on OVCAR-5 ovarian, 67.5 µM with SK-OV-3 ovarian and more than 100 µM in the assay on UACC-257 melanoma.

On to `N#CC1=C(N)Oc2cc3c(cc2C1c1cccs1)OCO3` (configuration not stated), for which the GI50 was 0.542 µM in the assay on CAKI-1 renal; 0.366 µM in the assay with COLO 205 colon; 0.407 µM with HCT-116 colon; 0.247 µM with HL-60(TB) leukemia; 0.484 µM in the assay on HOP-62 NSCLC; 1.1 µM in the assay with IGROV1 ovarian. The GI50 in the assay on OVCAR-3 ovarian is 0.236 µM; in the assay with OVCAR-5 ovarian, 2.82 µM; with SK-OV-3 ovarian it was 0.575 µM; with UACC-257 melanoma, 0.502 µM. The TGI with CAKI-1 renal is more than 100 µM; in the assay with COLO 205 colon, 1.66 µM; in the assay on HCT-116 colon, more than 62.3 µM; in the assay on HL-60(TB) leukemia, 0.899 µM; with HOP-62 NSCLC, more than 100 µM; in the assay with IGROV1 ovarian, more than 100 µM. The TGI was 0.644 µM with OVCAR-3 ovarian, more than 85.4 µM in the assay on OVCAR-5 ovarian, 8.1 µM in the assay with SK-OV-3 ovarian and more than 100 µM in the assay on UACC-257 melanoma.

Regarding `COC(=O)c1c[nH]cc1CCc1c[nH]cc1C(=O)OC`, the TGI with CAKI-1 renal, with COLO 205 colon, in the assay with HCT-116 colon, in the assay with HL-60(TB) leukemia, in the assay with HOP-62 NSCLC and in the assay with IGROV1 ovarian was more than 100 µM each time. Besides, the TGI with OVCAR-3 ovarian, in the assay with OVCAR-5 ovarian, in the assay with SK-OV-3 ovarian and in the assay on UACC-257 melanoma was more than 100 µM throughout.

Consider `O=C1/C(=C/c2cccc([N+](=O)[O-])c2)COc2ccc(O)c(O)c21`, for which the GI50 in the assay with CAKI-1 renal is 1.27 µM; in the assay with COLO 205 colon it was 1.79 µM; in the assay on HCT-116 colon, 1.14 µM; in the assay on HL-60(TB) leukemia, 2.29 µM; with HOP-62 NSCLC, 1.93 µM; in the assay on IGROV1 ovarian it was 1.02 µM. The GI50 with OVCAR-3 ovarian is 1.2 µM; with OVCAR-5 ovarian, 1.8 µM; with SK-OV-3 ovarian it was 3.41 µM; in the assay on UACC-257 melanoma, 1.86 µM. Also, the TGI in the assay with CAKI-1 renal turned out to be 2.59 µM; with COLO 205 colon, 3.74 µM; with HCT-116 colon, 2.7 µM; in the assay with HL-60(TB) leukemia, 7.14 µM; in the assay with HOP-62 NSCLC, 4.62 µM; in the assay with IGROV1 ovarian it was 2.97 µM. In addition, the TGI is 2.71 µM with OVCAR-3 ovarian, 3.44 µM with OVCAR-5 ovarian, 12.6 µM in the assay on SK-OV-3 ovarian and 4.81 µM in the assay on UACC-257 melanoma.

Take `C/C(CN1C(=O)c2ccccc2C1=O)=N\NS(=O)(=O)c1cccc([N+](=O)[O-])c1`: the TGI with CAKI-1 renal, in the assay with COLO 205 colon, with HCT-116 colon, with HL-60(TB) leukemia, with HOP-62 NSCLC and in the assay on IGROV1 ovarian was more than 100 µM throughout. In addition, the TGI in the assay on OVCAR-3 ovarian, in the assay with OVCAR-5 ovarian, with SK-OV-3 ovarian and in the assay with UACC-257 melanoma was more than 100 µM throughout.

For `Cc1ccc(Nc2nc(NCCO)c3ccccc3n2)cc1C`, the GI50 in the assay on CAKI-1 renal was 4.66 µM; with COLO 205 colon, 1.81 µM; in the assay with HCT-116 colon it was 3.95 µM; in the assay on HL-60(TB) leukemia, 11 µM; with HOP-62 NSCLC it was 10.7 µM; with IGROV1 ovarian, 9.65 µM. Moreover, the GI50 in the assay on OVCAR-3 ovarian was 11 µM; in the assay with OVCAR-5 ovarian it was 4.29 µM; in the assay with SK-OV-3 ovarian it was 14.2 µM; with UACC-257 melanoma, 2.14 µM. For the same compound, the TGI is 17.8 µM in the assay with CAKI-1 renal; 3.73 µM in the assay with COLO 205 colon; 14.5 µM in the assay with HCT-116 colon; 31 µM in the assay with HL-60(TB) leukemia; 24.1 µM in the assay on HOP-62 NSCLC; 23.8 µM with IGROV1 ovarian. The TGI in the assay on OVCAR-3 ovarian came to 23 µM; in the assay with OVCAR-5 ovarian, 16.4 µM; with SK-OV-3 ovarian it was 27.6 µM; with UACC-257 melanoma, 7.37 µM.

Turning to `NC(=S)/N=C/c1c(O)c2ccccc2oc1=O`, the TGI in the assay with CAKI-1 renal is 77.9 µM; with COLO 205 colon, more than 100 µM; with HCT-116 colon it was more than 100 µM; in the assay on HL-60(TB) leukemia, more than 100 µM; with IGROV1 ovarian it was more than 100 µM; with OVCAR-3 ovarian, more than 100 µM. Further, the TGI with OVCAR-5 ovarian, in the assay on SK-OV-3 ovarian and in the assay on UACC-257 melanoma was more than 100 µM in each case.

`COc1ccc(-c2ccc(C3CC(c4ccc(O)cc4)=NN3)o2)c([N+](=O)[O-])c1` (configuration not stated): the GI50 in the assay with CAKI-1 renal is 34.4 µM; with COLO 205 colon, 27.2 µM; in the assay with HCT-116 colon it was 20.1 µM; in the assay with HL-60(TB) leukemia it was 13 µM; with HOP-62 NSCLC, 34 µM; in the assay with IGROV1 ovarian, 84.9 µM. Also, the results for the GI50 in the assay with OVCAR-3 ovarian, in the assay on OVCAR-5 ovarian and in the assay with SK-OV-3 ovarian were 24.1 µM, more than 100 µM and 19.8 µM, respectively. For the same compound, the TGI in the assay on CAKI-1 renal is more than 100 µM; in the assay on COLO 205 colon it was 82.7 µM; in the assay on HCT-116 colon it was more than 100 µM; in the assay on HL-60(TB) leukemia it was 38.8 µM; in the assay on HOP-62 NSCLC, more than 100 µM; in the assay with IGROV1 ovarian, more than 100 µM. Moreover, the TGI in the assay on OVCAR-3 ovarian, in the assay with OVCAR-5 ovarian and in the assay with SK-OV-3 ovarian was more than 100 µM each time.

Regarding `Cc1ccc(S(=O)(=O)N/N=C(\CCN2CCCC2)CC(c2ccccc2)c2c(O)c3ccccc3oc2=O)cc1` (configuration not stated), the TGI in the assay with CAKI-1 renal, in the assay on HCT-116 colon, with HL-60(TB) leukemia, in the assay with HOP-62 NSCLC, with IGROV1 ovarian and in the assay with OVCAR-3 ovarian was more than 100 µM in each case. Further, the TGI in the assay on OVCAR-5 ovarian, in the assay with SK-OV-3 ovarian and in the assay with UACC-257 melanoma was more than 100 µM in each case.

Consider `O=P(c1ccccc1)(c1ccccc1)C1CC=C(c2ccccc2)C2(CCCC2)C1` (configuration not stated), for which the TGI was more than 100 µM with CAKI-1 renal; 56.7 µM with COLO 205 colon; more than 100 µM with HCT-116 colon; 50.7 µM in the assay with HL-60(TB) leukemia; more than 100 µM in the assay with IGROV1 ovarian; more than 100 µM in the assay with OVCAR-3 ovarian. Besides, the TGI with OVCAR-5 ovarian, in the assay with SK-OV-3 ovarian and in the assay on UACC-257 melanoma was more than 100 µM throughout.
